From US5525623A, “Compositions and methods for the treatment of immunomediated inflammatory disorders” (Arris Pharmaceutical Corporation, priority 1994, dated 1996)

Assays:
[1] = target: T1, Tryptase (Homo sapiens, UniProt Q15661); test: In Vitro Tryptase Inhibition Assay (hydrolysis of tosyl-GlyProLys-p-nitroanilide, Tris-HCl pH 8.2); format: biochemical
Protocol: Table II lists the inhibition constants (Ki ', micromolar (μM)) which were determined for several of the compounds of the present invention, wherein R^1 is hydrogen; R^2 is hydrogen; R^3 is --(CH2)3 --NH--(C=NH)--NH2; R^4 and R^5, together with the nitrogen and carbon to which they are attached form a five-membered heterocycle; and R^6 is hydrogen. […] Unlike Ki, Ki ' may not be a true dissociation constant of the enzyme-inhibitor complex; Ki ' is equal to Ki for a noncompetitive inhibitor and is directly proportional to Ki for competitive and uncompetitive inhibitors.
Generally, the assay conditions are light sensitive and variations in ambient light intensity may affect assay reproducibility. As a result of this potential source of error, some assays were run under dark conditions. The Ki 's reported in Tables II and III without parentheses were determined under conditions of ambient light. Ki 's reported with parentheses were determined under "dark" conditions as defined above.

[2] = test system: allergic sheep; test: Allergic sheep model: airway hyperresponsiveness to carbachol (PC400) 24 hours after antigen challenge; format: in vivo
Protocol: (§1) The initial asthmatic response can be evaluated in guinea pigs, and dogs, and particularly, with a basenji-greyhound cross strain which develops nonspecific airway hyperresponsiveness to numerous nonallergenic substances, such as methacholine and citric acid. […] In dual responding animals, the initial asthmatic response (IAR) is followed by a late asthmatic response (LAR) at 6-8 hours post-exposure.
(§2) The allergic sheep model was used to evaluate the potential antiasthmatic effects of the compounds of the present invention.
(§3) The allergic sheep model of asthma was employed in these studies. These methods have been published previously (see Abraham et al. (1983) Am. Rev. Respir. Dis. 128:839-844; Allegra et al. (1983) J. Appl. Physiol. 55:726-730; Russi et al. (1985) J. Appl. Physiol. 59:1416-1422; Soler et al. ((1989) J. Appl. Physiol. 67:406-413. Each sheep served as its own control. Body weights for these animals ranged from 20-50 kilograms.
(§4) In these studies, 9 mg of Compound 3 of Tables I and II was dissolved in 3 mL buffered saline and the total solution delivered as an aerosol 0.5 hours before, 4 hours after, and 24 hours after antigen challenge (total dose=27; n=6). In the control (vehicle only) trial, antigen challenge caused peak early and late increases above baseline in specific lung resistance (SRL) of 374±104% and 212±21% (mean±SE). In contrast, when the sheep were treated with Compound 3 of Tables I and II, the early and late increases in SRL were 280±39% and 72±9% (p <0.05 vs. control, Wilcoxon signed rank test). The peak early response was taken as the average of the maximum values occurring immediately post-challenge. Peak late responses were calculated by averaging the maximum response values obtained for each animal within the 6-8 hour time period. This approach is conservative and eliminates the possible reduction in the late response due simply to averaging.
Twenty-four hours after antigen challenge in both the control and drug trial, the sheep developed airway hyperresponsiveness. […] Baseline PC400 was 22.0±3.7 breath units in the control trial, falling to 9.1±1.3 breath units after antigen challenge (p<0.05 vs. baseline).

[3] = test system: allergic sheep; test: Allergic sheep model of asthma: specific lung resistance (SRL) after antigen challenge; format: in vivo; details: 9 mg aerosol 0.5 h before, 4 h and 24 h after antigen challenge
Protocol: as §1, §2, §3, §4

[4] = target: T1, Tryptase; test: biochemical; details: for Ki: Table IV
Protocol: Compounds (approx. 1 mg) to be assayed against tryptase were reconstituted in dimethylsulfoxide (DMSO) and diluted 1:10 into buffer containing 50 millimolar (mM) Tris-HCl at pH 8.2, and containing 100 mM NaCl, 0.05% Tween-20. Seven additional 3-fold dilutions were made from the initial dilution into the same buffer supplemented with 10% DMSO. Aliquots (50 μl) from each of the eight dilutions in the series were transferred to individual wells in a 96-well U-bottom microtiter plate. Tryptase (25 μl; 0.5 nM final concentration) was added to each well and the samples were mixed and incubated for 1 hr at room temperature under either ambient light (i.e., the light available in the room during the experiment) or under controlled "light" or "dark" conditions. "Light conditions" refers herein to a light intensity of 400-450 footcandles from a fluorescent bulb. "Dark" refers herein to sample containers wrapped in aluminum foil. The enzyme reaction was then initiated with the addition of the synthetic tripeptide substrate, tosyl-GlyProLys-p-nitroanilide (25 μl; 0.5 mM final concentration). The microtiter plates were immediately transferred to a UV/MAX Kinetic Microplate Reader (Molecular Devices) and hydrolysis of the chromogenic substrate was followed spectrophotometrically at […] for 5 minutes. […] Initial velocity measurements, calculated from progress curves by a kinetic analysis program called "BatchKi" (available commercially from Biokin Ltd., of Madison Wis.), were used to determine apparent inhibition constants for each inhibitor. This program is designed to perform regressions and curve-fitting of non-linear data.
Compound 3 was assayed against tryptase at four different pH's in the following buffer system: 120 mM NaCl, 2.7 mM KCl, 0.13 mM NaH2 PO4, 0.896 mM Na2 HPO4. The final buffer system used included 0.05% of Tween-20.
Thus, the assay procedure described above was performed wherein the dilution of Compound 3 and the addition of tryptase was done under ambient light at room temperature (22°-26° C.). The assay plate was wrapped in aluminum foil for a 1-hr incubation before substrate addition, which was also done under ambient light.

[5] = Table II, ambient light (no parentheses)
[6] = Table III, asterisk: "light" conditions, 400-450 footcandles
[7] = Table III, parentheses: "dark" conditions (aluminum foil)
[8] = Table II, asterisk: "light" conditions, 400-450 footcandles
[9] = Table II, parentheses: "dark" conditions (aluminum foil)

T1 sequence (Q15661 31-275): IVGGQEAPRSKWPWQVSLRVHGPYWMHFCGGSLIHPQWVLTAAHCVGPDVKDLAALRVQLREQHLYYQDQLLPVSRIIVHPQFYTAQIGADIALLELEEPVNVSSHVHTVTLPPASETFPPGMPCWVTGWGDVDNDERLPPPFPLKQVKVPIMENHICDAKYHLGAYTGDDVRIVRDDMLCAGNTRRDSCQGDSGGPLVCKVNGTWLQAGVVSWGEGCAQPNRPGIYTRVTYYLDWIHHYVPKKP

| Ki [1, 5] [µM] | Ki [1, 8] [µM] | Ki [1, 9] [µM] | Compound | also measured |
| --- | --- | --- | --- | --- |
| 20 | – | – | N=C(N)NCCC[C@H](NC(=O)c1cc(O)ccc1O)C(=O)N1CCC[C@H]1C(N)=O [Compound 20] | – |
| – | 8 | 2450 | N=C(N)NCCC[C@H](NC(=O)c1ccccc1O)C(=O)N1CCC[C@H]1C(N)=O [Compound 19] | – |
| > 500 | – | – | Cc1ccc(C(=O)N[C@@H](CCCNC(=N)N)C(=O)N2CCC[C@H]2C(N)=O)c(O)c1 [Compound 2] | – |
| 208 | – | – | COC(=O)[C@@H]1CCCN1C(=O)[C@H](CCCNC(=N)N)NC(=O)c1c(O)ccc2ccccc12 [Compound 8] | – |
| 0.84 | – | – | N=C(N)NCCC[C@H](NC(=O)c1c(O)ccc2ccccc12)C(=O)N1CCC[C@H]1C(N)=O [Compound 15] | – |
| – | 8 | 63 | N=C(N)NCCC[C@H](NC(=O)c1ncccc1O)C(=O)N1CCC[C@H]1C(N)=O [Compound 16] | – |
| 15 | – | – | CN(C)C(=O)[C@@H]1CCCN1C(=O)[C@H](CCCNC(=N)N)NC(=O)c1c(O)ccc2ccccc12 [Compound 5] | – |
| – | 23 | 56 | N=C(N)NCCC[C@H](NC(=O)c1nc2ccccc2nc1O)C(=O)N1CCC[C@H]1C(N)=O [Compound 9] | – |
| – | 18 | 149 | N=C(N)NCCC[C@H](NC(=O)c1cc(-c2ccccc2)ccc1O)C(=O)N1CCC[C@H]1C(N)=O [Compound 21] | – |
| 452 | – | – | N=C(N)NCCC[C@H](NC(=O)c1cccnc1O)C(=O)N1CCC[C@H]1C(N)=O [Compound 18] | – |
| 900 | – | – | Cc1ccc2c(O)c(C(=O)N[C@@H](CCCNC(=N)N)C(=O)N3CCC[C@H]3C(N)=O)cnc2n1 [Compound 17] | – |
| – | 752 | 707 | N=C(N)NCCC[C@H](NC(=O)c1cc2ccccc2cc1O)C(=O)N1CCC[C@H]1C(N)=O [Compound 14] | – |

Second part, the molecule before the results:

| Compound | Ki [1, 5] [µM] | Ki [1, 8] [µM] | Ki [1, 9] [µM] | also measured |
| --- | --- | --- | --- | --- |
| N=C(N)NCCC[C@H](NC(=O)c1ccc2ccccc2c1O)C(=O)N1CCC[C@@H]1C(N)=O [Compound 12] | – | – | – | Ki [1, 6]: 2.5 µM; Ki [1, 7]: 818 µM |
| N=C(N)NCCC[C@H](NC(=O)c1ccc2ccccc2c1O)C(=O)N1CCC[C@H]1C(N)=O [Compound 3, 1-hydroxy-2-naphthoyl-L-arginyl-L-proline amide] | – | 0.3 | 82 | effect on 24 hour hyperresponsiveness ([2]; 24 h after antigen challenge, FIG. 2): blocked the 24 hour hyperresponsiveness; PC400, after antigen challenge ([2]; drug trial, 24 h after antigen challenge, control 9.1±1.3): 17.6±3.5 breath units; PC400 change relative to baseline ([2]; drug trial, after antigen challenge vs. baseline): unchanged relative to baseline; PC400, baseline ([2]; drug trial, baseline (before antigen challenge), control baseline 22.0±3.7): 16.0±3.8 breath units; airway function in allergen challenged sheep ([2]; treatment with Compound 3, allergen challenged sheep): statistically significant improvement in airway function; effect on early response [3]: exhibited a tendency to reduce the early response; effect on late response ([3]; FIG. 1): attenuated the late response; late increase in SRL (peak late response above baseline, 6-8 hours) ([3]; n=6, mean±SE, control 212±21%, p <0.05 vs. control): 72±9%; early increase in SRL (peak early response above baseline) ([3]; n=6, mean±SE, control 374±104%): 280±39%; sensitivity to light in the buffer system ([4]; 120 mM NaCl, 2.7 mM KCl, 0.13 mM NaH2PO4, 0.896 mM Na2HPO4, 0.05% Tween-20, pH 7.5): less sensitive to light; Ki ([4]; pH 6.5): 14 µM; Ki ([4]; pH 7.0): 8 µM; Ki ([4]; pH 7.5): 5.4 µM; Ki ([4]; pH 8.0): 6.1 µM |
| N=C(N)NCCC[C@H](NC(=O)c1ccc2ccccc2c1O)C(=O)N1C[C@H](O)C[C@H]1C(N)=O [Compound 11] | – | – | – | Ki [1, 6]: 0.3 µM; Ki [1, 7]: 40 µM |
| N=C(N)NCCC[C@H](NC(=O)c1ccc2ccccc2c1O)C(=O)N1CCC[C@H]1C(=O)N1CCCC(C(N)=O)C1 (stereo partly shown) [Compound 6] | 82 | – | – | – |
| COC(=O)[C@@H]1C[C@@H](O)CN1C(=O)[C@H](CCCNC(=N)N)NC(=O)c1c(O)ccc2ccccc12 [Compound 4] | – | – | – | Ki ([1]; Table III, ambient light (no parentheses)): 749 µM |
| CN(CC(N)=O)C(=O)[C@H](CCCNC(=N)N)NC(=O)c1c(O)ccc2ccccc12 [Compound 1] | – | – | – | Ki [1, 6]: 3 µM; Ki [1, 7]: 637 µM |
| N=C(N)NCCC[C@H](NC(=O)c1ccc2ccccc2c1O)C(=O)N1CCC[C@H]1C(=O)N[C@@H](Cc1ccccc1)C(N)=O [Compound 13] | – | 0.6 | 110 | – |
| N=C(N)Nc1ccc(C[C@H](NC(=O)c2ccc3ccccc3c2O)C(=O)N2CCC[C@H]2C(N)=O)cc1 [Compound 10] | – | – | – | Ki [1, 6]: 2.5 µM; Ki [1, 7]: 18 µM |
| N=C(N)NCCC[C@H](NC(=O)c1ccc2ccccc2c1O)C(=O)N1CCC[C@H]1C(=O)N1CCC(C(N)=O)CC1 [Compound 7] | 664 | – | – | – |
